Values joined by “and” are separate entries in the source; they are usually repeats but may differ in a detail not shown here. Equal entries are not always repeated.

The conditions of series [1]: cited from earlier work.
For series [2] the following is noted: patients under insulin treatment; cited from earlier work.
In the next series the test system is BALB/c mice. The experiment in a line: Glycemia after oral insulin solution (not seized in polymer) in BALB/c mice. The format is in vivo. Conditions: for Glycemia: oral insulin solution 4 IU/kg, group averages (4 groups of 5 mice). On the procedure:
Excipients: Zinc Chloride, glycerol, metacresol, Sodium hydroxide, Chloridic acid, and water suitable for injections. • The irradiation conditions ensuring the best quality of the final product has been described. • Its release or liberation under laboratory conditions and in laboratory animals has been studied. • Bioavailability in laboratory animals, has been studied. • Laboratory experimental pharmacological steps are included. The determination of glycemia in blood is performed employing the following apparatus:
Measuring type device: Accu-Chek Active
The measured values listed in the table are shown averaged in FIG. 1.
GLYCEMIA as a function of time, averaged in four groups of BALB/c mice (five mice in each group), to which oral insulin solution (4 IU/kg) was administered (insulin without been seized into polymer).

[3] abbreviates: average action profile after subcutaneous injection.

By t½ is commonly meant how long it takes for the measured level to halve. On to Biosynthetic human insulin, for which the “Action profile: Duration” value in series [1] (setting [3]) was 7 to 8 h. Moreover, the “Action profile: Initial” value in series [1] (setting [3]) is recorded as “within the first half hour”. Moreover, the “Bond to plasmatic proteins” value in series [1] (except circulating insulin antibodies) is given as “No significative bond to plasmatic proteins”. Further, the “Average life (t½) of insulin in the bloodstream” value in series [1] (in bloodstream) is “only of a few minutes”. Besides, the t½ in series [1] (injected (subcutaneous) insulin, clinical studies, determined by absorption) is 2 to 5 h. In addition, the “Frequency of changes in the levels of glucose in the blood” value in series [2] was < 1/1000. The “Change of glycemia in mice” value in the series on BALB/c mice (30 to 75 minutes after oral administration of insulin solution) was “slight diminution of glycemia”. Moreover, the Glycemia in the series on BALB/c mice (time 0 min) is 100 mg/dL and 102 mg/dL and 105 mg/dL; in the series with BALB/c mice (time 15 min), 98 mg/dL and 97 mg/dL and 96 mg/dL; in the series with BALB/c mice (time 30 min), 101 mg/dL and 102 mg/dL and 103 mg/dL and 105 mg/dL; with BALB/c mice (time 60 min) it was 90 mg/dL and 93 mg/dL and 98 mg/dL and 96 mg/dL; in the series on BALB/c mice (time 90 min), 93 mg/dL and 95 mg/dL and 90 mg/dL and 94 mg/dL; in the series on BALB/c mice (time 180 min), 104 mg/dL and 102 mg/dL and 105 mg/dL and 100 mg/dL.

Values taken from patent publication US8414923B2, “Immobilization of bioactive molecules within a polymeric substrate” (priority 2007, dated 2013).
